# Target: Vasopressin V1 receptor (Homo sapiens, UniProt P37288+P47901)
# Experiment: Compound was evaluated for antagonistic activity against vasopressin V1 receptor
# Format: functional
row,SMILES,IC50 [µM]
1,CC(=O)NC(O)CCOc1ccc(C(=O)N2CCC(n3c(=O)ccc4ccccc43)CC2)cc1 (stereo not drawn),3.3
2,CC(=O)NC(O)CCOc1ccc(C(=O)N2CCC(N3C(=O)CCc4ccccc43)CC2)cc1 (stereo not drawn),0.6
3,CC(=O)NCCCOc1ccc(C(=O)N2CCC(N3C(=O)CCc4ccccc43)CC2)cc1,0.44
